According to US9023986B2, “Glucose-dependent insulinotropic peptide analogs” (Hoffmann-La Roche Inc., priority 2010, dated 2015):
Non-standard residues stand in square brackets, D forms with d. Residues, ends and D or L forms follow the SMILES beside them.

Legend:
human GIPR = target: T1, human GIPR (Homo sapiens, UniProt P48546); experiment: cAMP production in CHO-K1 cells expressing human GIPR (LANCE cAMP assay); format: cell-based
T1 construct: host or cells: CHO-K1
T1 sequence (P48546 22-466): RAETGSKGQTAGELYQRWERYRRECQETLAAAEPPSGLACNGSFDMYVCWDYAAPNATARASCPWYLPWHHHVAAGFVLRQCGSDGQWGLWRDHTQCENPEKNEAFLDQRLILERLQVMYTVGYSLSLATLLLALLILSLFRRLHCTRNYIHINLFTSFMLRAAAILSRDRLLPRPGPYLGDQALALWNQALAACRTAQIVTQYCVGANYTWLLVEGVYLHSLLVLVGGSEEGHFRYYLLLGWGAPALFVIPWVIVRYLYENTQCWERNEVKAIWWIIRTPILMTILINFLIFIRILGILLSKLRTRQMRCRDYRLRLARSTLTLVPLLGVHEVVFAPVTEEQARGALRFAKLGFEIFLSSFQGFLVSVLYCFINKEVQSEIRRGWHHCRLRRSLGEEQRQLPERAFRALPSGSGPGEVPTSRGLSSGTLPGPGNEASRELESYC
Method: CHO—K1 cells expressing human GIPR were obtained from DiscoverX Corporation (Fremont, Calif.). The cells were cultured in Ham's F-12 nutrient media supplemented with 10% foetal bovine serum, 800 μg/ml geneticin, 300 μg/ml hydromycin, 2 mM L-glutamine, and Penicillin-streptomycin (100 units, 100 μg) at 37° C. in a 5% CO2 incubator. The cells were harvested at 90% confluence.
The cells were suspended in Ham's F-12 nutrient media to a concentration of 200,000 cells/ml. The cells were then plated in a 384 well plate at with […] of the suspension added per well. The cells were incubated overnight at 37° C. in a 5% CO2 incubator.
The activity of the compounds was determined by stimulating the CHO—K1 cells with the test compound, and measuring the levels of cAMP produced. The activity of the compounds was compared to the activity of native GIP, as GIP stimulates cAMP production. 6 μl of the test compound in stimulation buffer (990 ml Hank's Balanced Salt solution (HBSS) (1×) (Invitrogen Corp #14025-092), 10 ml Hepes buffer solution (1 mol·L) (Invitrogen Corp 15630-080), 1 g BSA (final 0.1%), and 1 ml IBMX 250 mM stock prepared fresh in DMSO (Sigma-Aldrich 15879)) were added to cells, followed by 6 μl of Alexa Fluor® 647-anti cAMP antibody (Perkin Elmer) in stimulation buffer. […] The well plate was centrifuged for 3 min at 300 rpm, and incubated at room temperature for 45 minutes. 12 μl of detection mixture (biotin cAMP and EUW8044 labeled streptavidin (Eu-SA) in cAMP Detection Buffer (Perkin Elmer)) was added and incubated for 60 min at room temperature.
The levels of cAMP produced were measured according to the detailed protocol outlined in the Perkin Elmer LANCE cAMP Assay Perkin Elmer Lance cAMP Kit manual. The activity of the compounds was compared to the activity of native GIP.
The plates are read on a TRF detection instrument, EnVision® (Perkin Elmer) (excitation at 340 nm and emission at 665 nm). The values of the cAMP signal are obtained from the standard cAMP curve and used to determine the amount of maximal stimulation, and EC50 for stimulating the cAMP signal.

[1] = stability in human plasma; format: in vitro ADME
Method: (§1) The following study was conducted to assess the stability of the compound of Example 19 in Hannover Wistar rat and human plasma after 4 and 24 hours.
(§2) 2.08 mg of the compound of Example 19 was weighed out and placed in a 4 mL amber vial. To this was added 1.0 mL DMSO. The vial was carefully vortexed to produce a 573 μM stock solution of the compound.
(§3) Hannover Wistar rat plasma and human plasma (anti-coagulant sodium EDTA) were pre-warmed to 37° C. for 30 minutes in a water bath. Rat plasma pH was 7.45 and human plasma pH was 7.47. 1.5 mL microcentrifuge vials were used.
(§4) 8.70 μL of 573 μM stock solution of the compound of Example 19 was added to 491.34 μL of the rat plasma and placed into one vial. 8.74 μL of 573 μM stock solution of the compound of Example 19 was added to 491.34 μL of the human plasma and placed into another vial. The two vials were gently vortexed ensuring proper mixing.
(§5) Six new vials were labeled as follows: rat T0, rat T4, rat T24, human T0, human T4, human T24. To each of these vials, […] of treated plasma was added. The T4 and T24 vials were capped and placed in a 37° C. incubator for 4 and 24 hours, respectively.
(§6) To each of the two T0 vials, 50 µL of Sorensen buffer and 200 μL 1.0% acetic acid in acetonitrile were added. The T0 vials were then capped, vortexed and centrifuged at 10000×g for 10 minutes. Upon completion of centrifugation, 100 μL of the supernatant of each vial was added to a separate well in a 96-well injection block. 200 μL of 0.1% acetic acid in Milli-Q® water (Millipore) was then added to each well.
(§7) The above procedure as written with respect to the T0 vials was repeated for the two T4 vials at the 4 hour timepoint and the T24 vials at the 24 hour timepoint. With each timepoint a fresh T0 sample was prepared, as described above, to ensure there was no sample degradation.
(§8) All samples were analyzed by LC/MS/MS. The resulting chromatographs were processed to obtain peaks areas for each sample. The percent of compound remaining at each timepoint as compared with the amount present in the comparison T0 sample was calculated.

[2] = stability in Hannover Wistar rat plasma; format: in vitro ADME; conditions: for stability in rat plasma (in words): acceptance range 75-125%
Method: as §1, §2, §3, §4, §5, §6, §7, §8

Compound	Emax (human GIPR; CHO-K1, read-out: % activation of cAMP (maximal stimulation))	stability in human plasma (in words) ([1]; both the 4 hour and the 24 hour timepoints)	remaining at 4 h, 10 µM ([1]; pH 7.47, 10 uM, 37° C., 4 hr, vs T0 sample, LC/MS/MS)	remaining at 24 h, 10 µM ([1]; pH 7.47, 10 uM, 37° C., 24 hr, vs T0 sample, LC/MS/MS)	% Remaining 4 hr, Rat ([2]; 10 uM, 37° C., 4 hr, vs T0 sample, LC/MS/MS)	stability in rat plasma (in words) ([2]; 4 hours)	stability in rat plasma (in words) ([2]; 24 hour timepoint)	remaining at 24 h, 10 µM ([2]; Hannover Wistar, pH 7.45, 10 uM, 37° C., 24 hr, vs T0 sample, LC/MS/MS)	% activation of cAMP (maximal stimulation) (human GIPR; CHO-K1 cells expressing human GIPR, compared to native GIP)
CC[C@H](C)[C@H](NC(=O)[C@H](C)NC(=O)[C@H](CC(=O)O)NC(=O)[C@H](CCSC)NC(=O)[C@H](C)NC(=O)[C@@H](NC(=O)[C@H](CO)NC(=O)[C@H](Cc1ccc(O)cc1)NC(=O)[C@H](CC(=O)O)NC(=O)[C@H](CO)NC(=O)[C@@H](NC(=O)[C@H](Cc1ccccc1)NC(=O)[C@@H](NC(=O)CNC(=O)[C@H](CCC(=O)O)NC(=O)[C@H](C)NC(=O)[C@@H](Cc1ccc(O)cc1)NC(C)=O)[C@@H](C)O)[C@@H](C)CC)[C@@H](C)CC)C(=O)N[C@@H](Cc1c[nH]cn1)C(=O)N[C@@H](CCC(N)=O)C(=O)N[C@@H](CCC(N)=O)C(=O)N[C@@H](CC(=O)O)C(=O)N[C@@H](Cc1ccccc1)C(=O)N[C@H](C(=O)N[C@@H](CC(N)=O)C(=O)N[C@@H](Cc1c[nH]c2ccccc12)C(=O)N[C@@H](CC(C)C)C(=O)N[C@@H](CC(C)C)C(=O)N[C@@H](C)C(=O)N[C@@H](CCC(N)=O)C(=O)N[C@@H](CCCCN)C(N)=O)C(C)C [Example 19] (Ac-[dY]AEGTFISDYSIAMDAIHQQDFVNWLLAQK-NH2)	100%	stable	93.6%	75.9%	124.7%	stable	slightly below the acceptance range	72.7%	–
Ac-(D)Tyr-Ala-Glu-Gly-Thr-Phe-Ile-Ser-Asp-Tyr-Ser-Ile-Ala-Met-Asp-Lys-Ile-His-Gln-Gln-Asp-Phe-Val-Asn-Trp-Leu-Leu-Ala-Gln-Lys-NH2 [Example 6]	–	–	–	–	–	–	–	–	102%
